Experimental data as given in patent US11919871B1, “3-(3-chlorophenyl)-5-((2-isopropyl-5- methylphenoxy)methyl)-1,2,4-oxadiazole as an anti-cancer and antimicrobial compound” (KING FAISAL UNIVERSITY, priority 2023, dated 2024).

Experiments:
[1] = tested on: Chrysosporium keratinophilum; assay: Agar plate disc-diffusion, antifungal inhibition zone; assay type: cell-based; conditions: 72 h for fungi
Experimental: (§1) The agar plate disc-diffusion method was applied. Sterilized filter papers (6 mm in diameter) were wetted with 10 μL of a solution of 3-(3-chlorophenyl)-5-((2-isopropyl-5-methylphenoxy)methyl)-1,2,4-oxadiazole (3) to be tested, containing 10 mg/mL in DMSO, and the discs were allowed to air dry. The discs were then placed onto the surface of agar plates (nutrient agar for bacteria and Sabouraud's dextrose agar for fungi) seeded with the test organism. Each plate contained 15 mL of the agar medium, previously seeded with 0.2 mL of the broth culture of each organism pregrown for 18 hours. The plates were incubated at 37° C. for 48 h, and 72 h for fungi. The inhibition zones were measured in mm. Discs impregnated with DMSO were used as a control, and its inhibition zone was subtracted from the tested compound actual inhibition zone.

Escherichia coli = assay: Agar plate disc-diffusion, antibacterial inhibition zone; assay type: cell-based; conditions: 37° C., 48 h
Experimental: as §1, with “Sterilized filter papers (6 mm in diameter) were wetted with 10 μL of a solution of 3-(3-chlorophenyl)-5-((2-isopropyl-5-methylphenoxy)methyl)-1,2,4-oxadiazole (3) to be tested, containing 10 mg/mL in DMSO, and the discs were allowed to air dry.” left out

Bacillus cereus = assay: as above; assay type: cell-based; conditions: 37° C., 48 h
Experimental: as §1, with “Sterilized filter papers (6 mm in diameter) were wetted with 10 μL of a solution of 3-(3-chlorophenyl)-5-((2-isopropyl-5-methylphenoxy)methyl)-1,2,4-oxadiazole (3) to be tested, containing 10 mg/mL in DMSO, and the discs were allowed to air dry.” left out

Pseudomonas aeruginosa = assay: as above; assay type: cell-based; conditions: 37° C., 48 h
Experimental: as §1, with “Sterilized filter papers (6 mm in diameter) were wetted with 10 μL of a solution of 3-(3-chlorophenyl)-5-((2-isopropyl-5-methylphenoxy)methyl)-1,2,4-oxadiazole (3) to be tested, containing 10 mg/mL in DMSO, and the discs were allowed to air dry.” left out

Staphylococcus aureus = assay: as above; assay type: cell-based; conditions: 37° C., 48 h
Experimental: as §1, with “Sterilized filter papers (6 mm in diameter) were wetted with 10 μL of a solution of 3-(3-chlorophenyl)-5-((2-isopropyl-5-methylphenoxy)methyl)-1,2,4-oxadiazole (3) to be tested, containing 10 mg/mL in DMSO, and the discs were allowed to air dry.” left out

different microbes = assay: Antimicrobial activity, overall statement (agar plate disc-diffusion); assay type: cell-based; conditions: against different microbes (bacteria and fungi of Tables 1 and 2)
Experimental: as §1

Aspergillus flavus = assay: Agar plate disc-diffusion, antifungal inhibition zone; assay type: cell-based; conditions: 72 h for fungi
Experimental: as §1, with “Sterilized filter papers (6 mm in diameter) were wetted with 10 μL of a solution of 3-(3-chlorophenyl)-5-((2-isopropyl-5-methylphenoxy)methyl)-1,2,4-oxadiazole (3) to be tested, containing 10 mg/mL in DMSO, and the discs were allowed to air dry.” left out

[2] = tested on: human prostate cancer cells (PC3); assay: Cytotoxicity by SRB assay; assay type: cell-based; conditions: 0.01 μM to 100 μM for 72 h
Description: (§2) The anticancer activity of the described synthesized compounds against highly aggressive androgen-independent metastatic human prostate cancer cells (PC3) and osteosarcoma (MG-63) cells. The human prostate cancer cells (PC3) and human osteosarcoma cells (MG-63) were obtained from Nawah Scientific Inc. (Mokatam, Cairo, Egypt) and cultured in DMEM (Dulbecco's modified eagle's medium), Gibco, USA, supplemented with fetal bovine serum (FBS) at a concentration of 10% and 100 U/mL of penicillin and streptomycin (PS). The Cells were incubated at 37° C. in a humidified environment that contained 5% CO2.
(§3) Cells were seeded in 96-well plates as aliquots of 100 μL cell suspension and incubated in a complete media for 24 h. afterward, cells were treated with 3-(3-chlorophenyl)-5-((2-isopropyl-5-methylphenoxy)methyl)-1,2,4-oxadiazole at diverse concentrations ranging from 0.01 μM to 100 μM for 72 h. Then, cells were fixed at 4° C. for one hour with 150 μL of 10% trichloroacetic acid (TCA). […] Then, 150 μL of Tris pH 10.5 (10 mM) was added, and the absorbance was measured at 540 nm using a BMG LABTECH®-FLUOstar Omega microplate reader (Ortenberg, Germany). Half maximal inhibitory concentrations (IC50) values were calculated for each experiment using GraphPad Prism 6 software. […]
(§4) The inhibition was calculated using the following equation: Inhibition %=100−Average Viability

[3] = tested on: human osteosarcoma cells (MG-63); assay: Cytotoxicity by SRB assay; assay type: cell-based; conditions: MG-63 cells, 0.01 μM to 100 μM for 72 h
Description: as §2, §3, §4

[4] = A = concentration of comp. = 10,000 μL
[5] = B = concentration of comp. = 30,000 μL
[6] = C = concentration of comp. = 50,000 μL

Row | SMILES | inhibition zone [1, 4] | inhibition zone [1, 5] | inhibition zone [1, 6] | inhibition zone (Escherichia coli; [4]) | inhibition zone (Escherichia coli; [5]) | inhibition zone (Escherichia coli; [6]) | inhibition zone (Bacillus cereus; [4]) | inhibition zone (Bacillus cereus; [5]) | inhibition zone (Bacillus cereus; [6]) | inhibition zone (Pseudomonas aeruginosa; [4]) | inhibition zone (Pseudomonas aeruginosa; [5]) | inhibition zone (Pseudomonas aeruginosa; [6]) | inhibition zone (Staphylococcus aureus; [4]) | inhibition zone (Staphylococcus aureus; [5]) | inhibition zone (Staphylococcus aureus; [6]) | inhibition zone (Aspergillus flavus; [4]) | inhibition zone (Aspergillus flavus; [5]) | inhibition zone (Aspergillus flavus; [6]) | also measured
1 | Cc1ccc(C(C)C)c(OCc2nc(-c3cccc(Cl)c3)no2)c1 [Compound 3, 3-(3-chlorophenyl)-5-((2-isopropyl-5-methylphenoxy)methyl)-1,2,4-oxadiazole] | 27 mm | 29 mm | 48 mm | 24 mm | 35 mm | 50 mm | 30 mm | 31 mm | 39 mm | 24 mm | 28 mm | 38 mm | 13 mm | 17 mm | 20 mm | 18 mm | 20 mm | 29 mm | melting point: 151 to 153 °C; antimicrobial activities (different microbes): excellent antimicrobial activities
2 | O=C(O)c1cn(C2CC2)c2cc(N3CCNCC3)c(F)cc2c1=O [Cip., ciprofloxacin, reference compound] | 29 mm | 30 mm | 53 mm | 30 mm | 39 mm | 60 mm | 29 mm | 30 mm | 42 mm | 29 mm | 30 mm | 53 mm | 43 mm | 44 mm | 53 mm | 29 mm | 30 mm | 42 mm | –
3 | Cc1ccc(C(C)C)c(OCc2nc(-c3cccc(Cl)c3)no2)c1 [3-(3-chlorophenyl)-5-((2-isopropyl-5-methylphenoxy)methyl)-1,2,4-oxadiazole] | – | – | – | – | – | – | – | – | – | – | – | – | – | – | – | – | – | – | antiproliferative activities [2]: excellent antiproliferative activities; antiproliferative activities [3]: excellent antiproliferative activities
